Laboratory results as given in patent US20090324515A1, “ANTIMICROBIAL FLAVOURING COMPOSITION” (priority 2006, published 2009).
≈ marks a conversion by molar mass, not a printed value.

Key:
[1] = system: Streptococcus mutans DSM 6178; assay: Determination of minimum inhibitory concentration (microdilution assay); settings: for MIC: Streptococcus mutans, DSM6178, 24 h, read-out: MIC Streptococcus mutans
[2] = system: Prevotella melaninogenica; assay: as above; settings: 72 h, read-out: MIC Prevotella melaninogenica
[3] = system: Fusobacterium nucleatum DSM 20482; assay: as above; settings: for MIC: Fusobacterium nucleatum, DSM20482, 72 h, read-out: MIC Fusobacterium nucleatum
[4] = system: Porphyromonas gingivalis DSM 20709; assay: as above; settings: for MIC: Porphyromonas gingivalis, DSM20709, 72 h, read-out: MIC Porphyromonas gingivalis
[5] = system: Mycobacterium tuberculosis subsp. tuberculosis; settings: Amicbase; cited from earlier work
Staphylococcus aureus = settings: Amicbase; cited from earlier work
Streptococcus sp. = settings: Amicbase; cited from earlier work
Eschericia coli = settings: Amicbase; cited from earlier work
Proteus mirabilis = settings: Amicbase; cited from earlier work
Pseudomonas aeruginosa = settings: Amicbase; cited from earlier work
[6] = 72 h, 37° C., anaerobic, without CO2, average of 3 MIC values

| SMILES | MIC [1] [µg/mL] | MIC [3] [µg/mL] | MIC [4] [µg/mL] | also measured |
| --- | --- | --- | --- | --- |
| CCCCC(C)C(=O)O (centres unmarked) [2-Methylhexanoic acid, 2-methylhexanoic acid] | ≤ 150 | 500 (≈ 3.84 mM) | 1300 (≈ 9.99 mM) | MIC [2]: 1500 µg/mL (≈ 11.5 mM) |
| Cc1ccc(O)cc1C [3,4-dimethylphenol] | ≤ 150 | 500 (≈ 4.09 mM) | ≤ 150 | MIC [5]: 20 ppm; MIC (Staphylococcus aureus): 2000 ppm; MIC (Streptococcus sp.): 2000 ppm; MIC (Eschericia coli): 4000 ppm; MIC (Proteus mirabilis): 4000 ppm; MIC (Pseudomonas aeruginosa): 4000 ppm; MIC [2]: 590 µg/mL (≈ 4.83 mM) |
| CC(=O)C1=C(C)[C@@H]2C[C@@]3(C1)[C@H](C)CC[C@H]3C2(C)C [Acetyl cedrene, acetyl cedrene] |  |  |  | MIC Streptococcus mutans ([1]; 24 h, 37° C., anaerobic, with CO2, average of 3 MIC values): 250 ppm; MIC Fusobacterium nucleatum [3, 6]: 500 ppm; MIC Porphyromonas gingivalis [4, 6]: 150 or less ppm |
| CC1=CCC(CCC(C)CO)C1(C)C (centres unmarked) [Brahmanol, 2-methyl-4-(2,2,3-trimethyl-3-cyclopenten-1-yl)-1-butanol] | 250 (≈ 1.27 mM) | 250 (≈ 1.27 mM) | ≤ 150 |  |
| O=C/C=C/c1ccccc1 [Cinnamic aldehyde, cinnamic aldehyde] | 250 (≈ 1.89 mM) | 500 (≈ 3.78 mM) | ≤ 150 |  |
| O=C1CCCCCCCCCCCCCC1 [Cyclopenta-decanone, cyclopentadecanone] | 1000 (≈ 4.46 mM) | 1000 (≈ 4.46 mM) | ≤ 150 |  |
| COC(=O)c1c(C)cc(O)c(C)c1O [Methylatrarate, methyl-2,4-dihydroxy-3,6-dimethyl-benzoate] | 1000 (≈ 5.1 mM) | ≤ 150 | ≤ 150 |  |
